In brackets after ≈: the same amount, converted by molar mass. Like-named read-outs stand apart in the source and are kept apart here.
How the values were obtained:
[1] = Aqueous (kinetic) solubility assay in PBS pH 7.4; assay type: physicochemical; conditions: phosphate-buffered saline, 25 °C, pH 7.4, aqueous buffer, kinetic from dmso stock, PBS pH 7.4, 2% DMSO, two hours, assay range 2-200 μM
Method: Aqueous solubility assay: Using a 10 mM stock solution of the compound in 100% DMSO, dilutions were prepared to a theoretical concentration of 200 μM in duplicates in phosphate-buffered saline pH 7.4 with 2% final DMSO. In parallel, compound dilutions in 50% acetonitrile/PBS were prepared to theoretical concentrations of 0 μM (blank), 50 μM, 100 μM and 200 μM with 2% final DMSO to generate calibration curves. The experimental compound dilutions in PBS were further allowed to equilibrate at 25° C. on a thermostatic orbital shaker for two hours and then centrifuged at 14000 rpm, 5 min and filtered through HTS filter plates using a vacuum manifold. The supernatants of test compounds were diluted 2-fold with acetonitrile contained 4% DMSO before measuring. Ondansetron was used as reference compound to control proper assay performance. 200 μl of samples were transferred to 96-well plate and measured in 200-550 nm range with 5 nm step. The effective range of this assay is approximately 2-200 μM and the compounds returning values close to the upper limit of the range may have higher actual solubility (e.g. 5 ? deoxy-5-fluorouddine).

[2] = system: β-catenin; assay: β-catenin level in N2a cells by Western blotting; assay type: cell-based; conditions: 24 h; for β-catenin level: concentration as low as 0.1 μM; for EC50: Mus musculus, 3-4 independent experiments, read-out: EC50 values (X±SD), β-catenin level
Method: (A,C) N2a cells were treated with CI-994 at the indicated concentration for 24 h, and the levels of β-catenin (A) and BACE1 (C) were examined by Western blotting. (B,D) The band intensity of β-catenin and BACE1 was quantified and normalized to the corresponding signal for actin. The results represented in the histograms are shown as the mean±SD and are the average of three independent experiments. *P<0.05, **P<0.01 versus corresponding control value.
N2a cells were treated with 1015, 1011, or 1020 at the indicated concentration for 24 h. (A) the levels of total cellular β-catenin were examined by Western blotting. (B) The intensity of the β-catenin bands were quantified and normalized to the corresponding signal for actin. The results represented in the histograms are shown as the mean±SD and are the average of 3-4 independent experiments, and the EC50 values were calculated with graphpad prism.
Western blotting: Cells in 6-well plates were lysed in 0.5 ml of lysis buffer (phosphate-buffered saline containing 1% Triton X-100, 1× Proteinase inhibitor cocktail Complete, and 1 mM PMSF) at 4° C. for 15 min. Equal quantities of protein were subjected to SDS-PAGE under reducing conditions. Following transfer to immobilon-P transfer membrane, successive incubations with a primary antibody, and a horseradish peroxidase-conjugated secondary antibody or IRDye® 680RD goat anti-rabbit/mouse secondary antibodies were carried out for 60-120 min at room temperature. The immunoreactive proteins were then detected using the ECL system or the Odyssey infrared imaging system (LI-COR). Films showing immunoreactive bands were scanned by Hp Scanjet 5590.

[3] = system: LRP6; assay: Wnt reporter assay in HEK293 cells after LRP6 siRNA knockdown; assay type: cell-based, human; conditions: CI-994 16 μM, 1011, 1015, 1023 1 μM, 24 h
Method: (A) structures of niciosamide and CI-994; (B) HEK293 cells were transfected with Super8XTOPFlash and β galactosidase vectors along with Wnt3A or control vector. After 24 hours incubation, cells were treated with CI-994 at the indicated concentration for 24 hr. The luciferase activity was then measured and normalized to the activity of the β-galactosidase. (C) HT1080 cells stably transduced LRP6 with HA tag were treated with niciosamide and CI-994 at the indicated concentrations for 24 h. The levels of HA-LRP6 were examined by Western blot with anti-HA antibody. (D) Western blots showing the depletion of LRP6 after 2 days of transiently transfection of 50 nM LRP6 siRNA in HEK293 cells. ON-TARGETplus double-stranded siRNA oligomers against human LRP6 and non-specific scrambled siRNA control (Stealth RNAi™ siRNA Negative Control, Med GC) were purchased from Thermo Scientific. siRNA LRP6-1, siRNA LRP6-2 and control siRNA were Thermo Scientific catalog numbers J-003845-09, J-003845-11 and 12935300, respectively. (E) HEK293 cells were transfected with LRP6 siRNAs, and after 8 h incubation were further transfected with Super8XTOPFlash construct and β galactosidase-expressing vector. After 24 h incubation, the cells were treated with CI-994 (16 μM) for 24 h. The luciferase activity was then measured and normalized to β-galactosidase activity. All the values are the average of triplicate determinations with the SD values indicated by error bars. **P<0.01 versus corresponding control value.
(A) HT1080 cells stably transduced with human LRP6 with HA tag were treated with niciosamide (1 μM) and other compounds as noted (1 μM) for 24 hr. The levels of HA-LRP6 were examined by Western blots with anti-HA antibody. All samples were also probed with anti-actin antibody to verify equal loading. This experiment is a representative of two such experiments performed with similar data. (B) N2a cells were treated with 1015 and 1011 at the indicated concentrations for 24 h. The expression levels of LRP6, β-catenin and actin were examined by Western blotting. This experiment is a representative of three such experiments performed with similar data. (C) HEK293 cells were transfected with LRP6 siRNAs, and after 8 h incubation were further transfected with Super8XTOPFlash construct and β galactosidase-expressing vector. ON-TARGETplus double-stranded siRNA oligomers against human LRP6 and non-specific scrambled siRNA control (Stealth RNAi™ siRNA Negative Control, Med GC) were purchased from Thermo Scientific. siRNA LRP6-1, siRNA LRP6-2 and control siRNA were Thermo Scientific catalog numbers J-003845-09, J-003845-11 and 12935300, respectively. […] The luciferase activity was then measured and normalized to β-galactosidase activity. […]

[4] = read-out: PBS solubility, pH 7.4, μM Exp1
[5] = read-out: PBS solubility, pH 7.4, μM Exp2
[6] = read-out: PBS solubility, pH 7.4, μM Mean

| Compound | solubility at 2 h [1, 4] [µM] | solubility at 2 h [1, 5] [µM] | solubility at 2 h [1, 6] [µM] | β-catenin level [2] | EC50 [2] [nM] | effect of knockdown of LRP6 expression on the compound's effect on Wnt/β-catenin signaling [3] | β-catenin levels ([2]; CI-994 at the indicated concentration) |
| --- | --- | --- | --- | --- | --- | --- | --- |
| CC1CCCC(C)N1CCNC(=O)c1ccc(C(=O)Nc2ccccc2N)nc1 (stereo not shown) [Compound 1011] | 207 (≈ 81.9 µg/mL) | 207 (≈ 81.9 µg/mL) | ≥ 200 | significantly enhanced | 930 ± 10 | significantly attenuated |  |
| CC(=O)Nc1ccc(C(=O)Nc2ccccc2N)cc1 [CI-994, 4-(acetylamino)-N-(2-aminophenyl)benzamide, reference compound] |  |  |  |  |  | significantly attenuated | significantly increased |
| Nc1ccccc1NC(=O)c1ccc(C(=O)NCCN2CCC3(CCCCC3)CC2)cc1 [Compound 1020] | 200 (≈ 86.9 µg/mL) | 205 (≈ 89.1 µg/mL) | ≥ 200 | significantly enhanced | 1020 ± 240 |  |  |
| Nc1ccccc1NC(=O)c1ccc(C(=O)NCC2CCN2C2CCCC2)cn1 (stereo not shown) [Compound 1015] | 210 (≈ 82.6 µg/mL) | 211 (≈ 83 µg/mL) | ≥ 200 | significantly enhanced | 960 ± 140 | significantly attenuated |  |

Reference: patent publication US20220267271A1, “WNT ACTIVATORS AND METHODS OF USE” (MAYO FOUNDATION FOR MEDICAL EDUCATION AND RESEARCH, priority 2019, published 2022)
